Assay results reported in patent EP1928451B1, “METHODS FOR TREATING SUBSTANCE-RELATED DISORDERS” (SK Biopharmaceuticals Co., LTD, priority 2005, dated 2007).

Legend:
[1] = tested on: selectively-bred alcohol preferring (P) rats; experiment: Chronic administration: two-bottle choice alcohol intake in alcohol preferring rats; type: in vivo
Description: (§1) A compound of the present invention was tested in ethanol preferring rats, a model for acute and chronic drug addiction in humans using an adaptation of a published method (See, Rezvani, AH et al. Alcohol & Alcoholism, Vol. 25, No. 5, pp. 573-575, 1990, Rezvani AH, et al., Alcohol and Alcoholism (Oxford), 2000, 35(1), 76-83).
(§2) An enantiomer of Formula (Ib) was orally administered in a dose range of from about 10 to about 90 mg/kg in test and control treatment groups of 10 rats per group over a period of 14 days. Test conditions reflected approaches for evaluating patterns of drinking (e.g., single or multiple events).
Adult male selectively-bred alcohol preferring (P) rats were used. The selectively-bred alcohol-preferring (P) rats have been characterized and have been widely used to study the effects of different compounds on voluntary alcohol intake (Rezvani et al, 1990, 1991, 1992a, 1992b, 1999, 2000, 2002; 2003; Murphy et al, 1988; Overstreet et al., 1992, 1999; Li and McBride, 1995).
Rats were housed individually in wire mesh cages under a constant room temperature of 22 +1 °C and 12:12 light-dark cycle (8:00-20:00, dark). Animal were fed Agway Prolab Rat/Mouse/ Hamster 3000 formula and water ad libitum.
(§3) Establishment of baseline alcohol intake: Alcohol intake was determined using a standard two-bottle choice method (as described in Murphy et al. 1988; McBride et al. 1990; Rezvani et al. 1990, 1991, 1993, 1995, 1997, Rezvani and Grady, 1994).
Animals were first given free access to water in a graduated Richter tube for 1 day. After the first day, the animals were given access to only a solution of 10% (v/v) ethanol for 3 consecutive days. During this period animals became accustomed to drinking from Richter tubes and to the taste and pharmacological effects of alcohol. Thereafter, they were given free access to both water and a solution of 10% alcohol for at least 3 consecutive weeks and throughout of the period of study. The rats had free access to food. Water and alcohol intake was recorded at 6 and 24 hour after the treatment, food intake was measured at 24 hour. Animal body weight was measured every day.
The effect of chronic administration of a test compound on alcohol intake and tolerance to the anti-craving effects of the test compound was tested in naïve rats treated (via gavage tube) once a day either vehicle or test compound. A test compound dose of 45 mg/Kg was selected as an effective dose for chronic administration based on the results of the acute administration study phase. Themost effective dose was then used for the chronic adminstiration phase and administered for 14 consecutive days. Alcohol and water intake was recorded 6 and 24 h after each treatment administration and food intake was recorded at 24 hr.
The results were presented as means ±SEM (Standard Error of the Means). Alcohol intake (g/kg) was calculated by multiplying the volume of alcohol consumed in mL by 10% and 0.7893 (a factor representing ethanol density)/body weight in kg. Alcohol preference, expressed as percentage, was calculated as follows (volume of alcohol consumed (mL)/total fluid intake (mL)) x 100 (as described in Rezvani and Grady,. 1994; Rezvani et al., 1997). Statistical differences between treatment and control groups were determined by using ANOVA and Turkey Student's t test for multiple comparisons.

[2] = tested on: selectively-bred alcohol preferring (P) rats; experiment: Acute administration: two-bottle choice alcohol intake in alcohol preferring rats; type: in vivo; settings: dose of about 45 mg/kg and up, oral
Description: as §1, §2
Adult male selectively-bred alcohol preferring (P) rats were used. […]
as §3
Animals were first given free access to water in a graduated Richter tube for 1 day. […] Water and alcohol intake was recorded at 6 and 24 hour after the treatment, food intake was measured at 24 hour. Animal body weight was measured every day. […]
The results were presented as means ±SEM (Standard Error of the Means). […] Statistical differences between treatment and control groups were determined by using ANOVA and Turkey Student's t test for multiple comparisons.

[3] = BL (baseline, before treatment), drug group
[4] = Day 1, 45 mg/Kg once a day via gavage
[5] = Day 2, 45 mg/Kg once a day via gavage
[6] = Day 3, 45 mg/Kg once a day via gavage
[7] = Day 4, 45 mg/Kg once a day via gavage
[8] = Day 5, 45 mg/Kg once a day via gavage
[9] = Day 6, 45 mg/Kg once a day via gavage
[10] = Day 7, 45 mg/Kg once a day via gavage
[11] = Day 8, 45 mg/Kg once a day via gavage
[12] = Day 9, 45 mg/Kg once a day via gavage
[13] = Day 10, 45 mg/Kg once a day via gavage
[14] = Day 11, 45 mg/Kg once a day via gavage
[15] = Day 12, 45 mg/Kg once a day via gavage
[16] = Day 13, 45 mg/Kg once a day via gavage
[17] = Day 14, 45 mg/Kg once a day via gavage

NC(=O)OC[C@@H](O)c1ccccc1Cl [Drug]
tolerance for the test compound's affect on ethanol intake ([1]; 45 mg/Kg once a day for 14 consecutive days): without developing a tolerance | Alcohol Intake [1, 3]: 5.30 g/kg | Alcohol Pref [1, 3]: 71% | Body Weight [1, 3]: 384 g | Water Intake [1, 3]: 30 g/kg | Alcohol Intake [1, 4]: 1.61 g/kg | Alcohol Pref [1, 4]: 28% | Body Weight [1, 4]: 418 g | Water Intake [1, 4]: 62 g/kg | Alcohol Intake [1, 5]: 1.31 g/kg | Alcohol Pref [1, 5]: 24% | Body Weight [1, 5]: 415 g | Water Intake [1, 5]: 60 g/kg | Alcohol Intake [1, 6]: 1.37 g/kg | Alcohol Pref [1, 6]: 24% | Body Weight [1, 6]: 413 g | Water Intake [1, 6]: 60 g/kg | Alcohol Intake [1, 7]: 1.03 g/kg | Alcohol Pref [1, 7]: 16% | Body Weight [1, 7]: 415 g | Water Intake [1, 7]: 68 g/kg | Alcohol Intake [1, 8]: 1.24 g/kg | Alcohol Pref [1, 8]: 21% | Body Weight [1, 8]: 419 g | Water Intake [1, 8]: 68 g/kg | Alcohol Intake [1, 9]: 1.10 g/kg | Alcohol Pref [1, 9]: 21% | Body Weight [1, 9]: 421 g | Water Intake [1, 9]: 61 g/kg | Alcohol Intake [1, 10]: 1.85 g/kg | Alcohol Pref [1, 10]: 34% | Body Weight [1, 10]: 424 g | Water Intake [1, 10]: 48 g/kg | Alcohol Intake [1, 11]: 2.21 g/kg | Alcohol Pref [1, 11]: 35% | Body Weight [1, 11]: 426 g | Water Intake [1, 11]: 52 g/kg | Alcohol Intake [1, 12]: 2.19 g/kg | Alcohol Pref [1, 12]: 45% | Body Weight [1, 12]: 429 g | Water Intake [1, 12]: 40 g/kg | Alcohol Intake [1, 13]: 3.06 g/kg | Alcohol Pref [1, 13]: 52% | Body Weight [1, 13]: 431 g | Water Intake [1, 13]: 44 g/kg | Alcohol Intake [1, 14]: 2.93 g/kg | Alcohol Pref [1, 14]: 57% | Body Weight [1, 14]: 435 g | Water Intake [1, 14]: 30 g/kg | Alcohol Intake [1, 15]: 2.67 g/kg | Alcohol Pref [1, 15]: 58% | Body Weight [1, 15]: 436 g | Water Intake [1, 15]: 27 g/kg | Alcohol Intake [1, 16]: 2.37 g/kg | Alcohol Pref [1, 16]: 42% | Body Weight [1, 16]: 431 g | Water Intake [1, 16]: 48 g/kg | Alcohol Intake [1, 17]: 2.32 g/kg | Alcohol Pref [1, 17]: 40% | Body Weight [1, 17]: 437 g | Water Intake [1, 17]: 54 g/kg | effect on alcohol intake [2]: significant effect on alcohol intake
